Measured values reported in ChEMBL document CHEMBL5042510, “Structure-Guided Discovery of Aminoquinazolines as Brain-Penetrant and Selective LRRK2 Inhibitors” (J Med Chem, 2022).

Columns and labels:
[1] = Oral bioavailability in Wistar Han rat at 5 mg/kg by LC-MS/MS analysis; assay type: ADME, organism-based; settings: in vivo
[2] = tested on: Leucine-rich repeat serine/threonine-protein kinase 2 (Homo sapiens), Q5S007 [G2019S]; assay: Inhibition of LRRK2 […] mutant expressed in human SH-SY5Y cells assessed as unbound concentration required for inhibition of phosphorylation of LRRK2 at Ser935 residue incubated for 90 mins by MSD assay; assay type: cell-based
rat Mdr1a (P-gp) = assay: Efflux ratio of apparent permeability across basolateral to apical side over apical to basolateral side in rat Mdr1a-transfected pig LLC-PK1 cells at 0.1 to 1 uM measured after 3 hrs by LC/MS/MS analysis; assay type: ADME, cell-based, Sus scrofa; settings: dose 0.1-1 µM
[3] = Intrinsic clearance in rat hepatocytes at 0.3 uM incubated for 90 mins by LC/MS/MS analysis; assay type: ADME, cell-based, Hepatocyte; settings: read-out: CLH
[4] = Intrinsic clearance in Wistar Han rat at 2 mg/kg, iv by LC-MS/MS analysis; assay type: ADME, organism-based; settings: in vivo
[5] = Oral bioavailability in Beagle dog at 0.5 mg/kg by LC-MS/MS analysis; assay type: ADME, organism-based, Canis lupus familiaris; settings: in vivo
[6] = target: Leucine-rich repeat serine/threonine-protein kinase 2 (Homo sapiens) (UniProt Q5S007); assay: Ex vivo inhibition of LRRK2 in human PBMC assessed as unbound concentration required for reduction in LRRK2 phosphorylation at Ser935 residue incubated for 90 mins by MSD assay; assay type: cell-based
[7] = Unbound fraction in CD rat plasma at 1 to 100 mg/kg, po measured after 120 mins by LC/MS/MS analysis; assay type: ADME, organism-based; settings: in vivo, 2 h, dose 1-100 mg/kg
[8] = target: Mitogen-activated protein kinase 3 (Homo sapiens, UniProt P27361); assay: Inhibition of ERK1 (unknown origin)
Substance-P receptor = Substance-P receptor (Homo sapiens, UniProt P25103); assay: Inhibition of tachykinin NK1 receptor (unknown origin)
[9] = Genotoxicity in CHO-WBL cells incubated for 3 hrs in presence of liver S9 extract by invitro micronucleus test; assay type: toxicity, Cricetulus griseus; settings: chinese hamster, s9, 3 h
[10] = Cardiotoxicity in telemetered Wistar Han rat assessed as NOAEL at 30 mg/kg, po; assay type: toxicity, organism-based; settings: in vivo
[11] = Cardiotoxicity in telemetered Wistar Han rat assessed as elevation of systolic blood pressure at 100 mg/kg, po; assay type: toxicity, organism-based; settings: in vivo
[12] = AUC in rat at 10 to 400 mg/kg, po qd for 4 days by LC/MS/MS analysis; assay type: ADME, organism-based; design: time 4 day; settings: in vivo, 96 h, dose 10-400 mg/kg
[13] = Toxicity in rat assessed as clinical signs of toxicity at 40 to 400 mg/kg, po qd administered for 4 days; assay type: organism-based; settings: in vivo, 96 h, dose 40-400 mg/kg, time 4 day
[14] = Toxicity in rat assessed as body weight loss at 400 mg/kg, po qd administered for 4 days; assay type: organism-based; settings: in vivo, 96 h, time 4 day
[15] = In vivo inhibition of LRRK2 in CD rat assessed as reduction in phosphorylation at Ser935 residue in striatum at 1 mg/kg, po measured after 2 hrs by MSD assay; assay type: functional
[16] = In vivo inhibition of LRRK2 in CD rat assessed as reduction in phosphorylation at Ser935 residue in striatum at 100 mg/kg, po measured after 2 hrs by MSD assay; assay type: functional

Chain of Substance-P receptor (P25103 whole entry): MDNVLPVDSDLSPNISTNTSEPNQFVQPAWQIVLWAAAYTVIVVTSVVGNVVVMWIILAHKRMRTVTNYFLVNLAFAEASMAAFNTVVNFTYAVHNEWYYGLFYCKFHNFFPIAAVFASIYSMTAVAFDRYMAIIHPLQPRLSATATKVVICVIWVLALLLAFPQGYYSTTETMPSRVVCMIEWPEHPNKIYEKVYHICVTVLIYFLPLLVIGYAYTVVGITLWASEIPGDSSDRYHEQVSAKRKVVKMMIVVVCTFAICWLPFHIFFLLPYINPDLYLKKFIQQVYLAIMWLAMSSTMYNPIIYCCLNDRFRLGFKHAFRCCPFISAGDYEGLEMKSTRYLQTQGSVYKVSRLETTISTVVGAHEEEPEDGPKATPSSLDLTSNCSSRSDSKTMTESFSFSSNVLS
Chain of Mitogen-activated protein kinase 3 (P27361 whole entry): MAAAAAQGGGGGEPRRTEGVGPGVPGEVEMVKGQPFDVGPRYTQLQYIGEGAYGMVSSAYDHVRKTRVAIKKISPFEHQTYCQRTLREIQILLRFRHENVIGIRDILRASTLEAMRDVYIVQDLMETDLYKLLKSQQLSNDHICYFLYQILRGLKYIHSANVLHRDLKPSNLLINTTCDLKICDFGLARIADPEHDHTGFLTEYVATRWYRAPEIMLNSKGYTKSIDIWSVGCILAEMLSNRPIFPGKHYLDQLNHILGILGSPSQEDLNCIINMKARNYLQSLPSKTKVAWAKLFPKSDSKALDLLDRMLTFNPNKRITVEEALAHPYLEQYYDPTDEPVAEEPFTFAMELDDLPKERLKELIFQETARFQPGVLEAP
Chain of Leucine-rich repeat serine/threonine-protein kinase 2 (Homo sapiens) (Q5S007 whole entry): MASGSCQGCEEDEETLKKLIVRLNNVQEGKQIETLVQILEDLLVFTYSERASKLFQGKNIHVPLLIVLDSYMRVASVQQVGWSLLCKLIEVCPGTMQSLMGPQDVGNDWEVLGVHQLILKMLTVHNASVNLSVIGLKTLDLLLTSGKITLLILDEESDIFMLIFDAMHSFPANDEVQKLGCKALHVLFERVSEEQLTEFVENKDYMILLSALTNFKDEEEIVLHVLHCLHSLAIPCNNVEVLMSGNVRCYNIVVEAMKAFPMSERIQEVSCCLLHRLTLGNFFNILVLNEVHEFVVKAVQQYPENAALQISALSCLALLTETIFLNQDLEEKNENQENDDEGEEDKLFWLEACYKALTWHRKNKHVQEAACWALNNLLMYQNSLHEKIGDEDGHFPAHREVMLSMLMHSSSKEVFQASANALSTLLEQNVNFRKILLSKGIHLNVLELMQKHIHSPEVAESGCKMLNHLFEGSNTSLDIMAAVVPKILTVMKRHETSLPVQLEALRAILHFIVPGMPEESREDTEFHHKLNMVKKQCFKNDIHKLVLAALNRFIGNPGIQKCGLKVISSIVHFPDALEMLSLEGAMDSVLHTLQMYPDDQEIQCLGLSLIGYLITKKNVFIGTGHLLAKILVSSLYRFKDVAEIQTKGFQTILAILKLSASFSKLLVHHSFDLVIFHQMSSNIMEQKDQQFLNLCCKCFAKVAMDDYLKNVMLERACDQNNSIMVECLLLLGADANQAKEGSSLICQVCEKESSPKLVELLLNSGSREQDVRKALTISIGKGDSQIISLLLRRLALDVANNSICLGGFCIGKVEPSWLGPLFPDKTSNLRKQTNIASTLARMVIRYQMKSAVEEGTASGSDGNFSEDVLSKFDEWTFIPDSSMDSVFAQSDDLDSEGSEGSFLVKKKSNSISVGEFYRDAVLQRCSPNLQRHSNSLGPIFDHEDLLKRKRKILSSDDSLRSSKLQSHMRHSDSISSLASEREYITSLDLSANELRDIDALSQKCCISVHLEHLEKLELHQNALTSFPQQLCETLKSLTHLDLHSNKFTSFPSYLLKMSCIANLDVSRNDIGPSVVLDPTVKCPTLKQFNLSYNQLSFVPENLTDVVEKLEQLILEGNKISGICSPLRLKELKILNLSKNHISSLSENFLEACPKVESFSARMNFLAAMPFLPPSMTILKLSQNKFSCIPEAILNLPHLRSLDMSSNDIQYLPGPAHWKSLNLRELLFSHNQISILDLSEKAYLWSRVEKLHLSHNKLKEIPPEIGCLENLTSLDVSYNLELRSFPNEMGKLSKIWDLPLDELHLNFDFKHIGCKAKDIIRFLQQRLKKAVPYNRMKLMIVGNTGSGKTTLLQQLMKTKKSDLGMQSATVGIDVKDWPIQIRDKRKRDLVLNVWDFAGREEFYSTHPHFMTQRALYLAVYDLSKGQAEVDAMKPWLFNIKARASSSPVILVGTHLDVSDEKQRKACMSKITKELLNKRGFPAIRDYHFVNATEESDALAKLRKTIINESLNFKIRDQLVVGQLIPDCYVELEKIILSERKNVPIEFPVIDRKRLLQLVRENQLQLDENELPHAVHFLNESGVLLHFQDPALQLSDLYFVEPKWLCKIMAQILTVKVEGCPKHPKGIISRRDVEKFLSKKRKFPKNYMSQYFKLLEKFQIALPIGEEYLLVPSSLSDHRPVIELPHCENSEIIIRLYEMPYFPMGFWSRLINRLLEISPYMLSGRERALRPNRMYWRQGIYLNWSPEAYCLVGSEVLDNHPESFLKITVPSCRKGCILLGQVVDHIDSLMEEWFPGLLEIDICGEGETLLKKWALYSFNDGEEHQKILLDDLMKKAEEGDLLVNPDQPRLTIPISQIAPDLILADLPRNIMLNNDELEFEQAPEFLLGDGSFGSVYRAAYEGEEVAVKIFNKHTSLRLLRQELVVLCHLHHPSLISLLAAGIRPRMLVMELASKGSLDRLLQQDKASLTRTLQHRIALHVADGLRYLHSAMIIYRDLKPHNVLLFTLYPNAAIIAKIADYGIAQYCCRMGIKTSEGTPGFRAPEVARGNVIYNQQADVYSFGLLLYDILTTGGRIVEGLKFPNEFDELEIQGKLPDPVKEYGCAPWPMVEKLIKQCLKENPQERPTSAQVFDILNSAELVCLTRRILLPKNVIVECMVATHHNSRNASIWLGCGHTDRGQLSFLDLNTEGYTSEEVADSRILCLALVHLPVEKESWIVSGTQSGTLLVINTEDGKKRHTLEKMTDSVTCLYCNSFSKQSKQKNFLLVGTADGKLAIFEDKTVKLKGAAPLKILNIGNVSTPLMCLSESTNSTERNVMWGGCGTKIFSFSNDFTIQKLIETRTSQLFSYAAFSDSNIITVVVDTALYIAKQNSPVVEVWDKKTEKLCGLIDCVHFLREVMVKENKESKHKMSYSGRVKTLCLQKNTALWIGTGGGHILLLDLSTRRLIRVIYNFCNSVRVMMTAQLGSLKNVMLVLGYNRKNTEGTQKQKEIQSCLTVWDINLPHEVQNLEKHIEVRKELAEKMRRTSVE
Chain of Leucine-rich repeat serine/threonine-protein kinase 2 (Homo sapiens), Q5S007 [G2019S] (Q5S007 whole entry G2019S): as the sequence (Q5S007 whole entry) above, with G2019S counted along it

- bioavailability [1]: 83%
- fIC50 [2]: 0.57 nM
- efflux ratio at 3 h, up to 1 µM (rat Mdr1a (P-gp)): 3.7
- CLint scaled at 0.3 µM [3]: 248 mL/min/kg
- CL [4]: 1278 mL/min/kg
- bioavailability [5]: 79%
- fIC50 [6]: 1.9 nM
- Cp(f) [7]: 10.14 nM
- IC50 [8]: 1.8 µM
- IC50 (Substance-P receptor): 5.7 µM
- AUC [12]: 99 µM·h
SMILES: O[C@H]1COC[C@H]1N1CC[C@@H](c2cc3nc(Nc4cnn([C@@H]5CC5(F)F)c4Cl)ncc3cc2Cl)[C@H](F)C1
- Activity [9]: Non-Toxic
- Activity [10]: Non-Toxic
- Activity [11]: Toxic
- Activity [13]: Non-Toxic
- Activity [14]: Toxic
- inhibition in vivo at 1 mg/kg [15]: 7%
- inhibition in vivo at 100 mg/kg [16]: 97%
